± gives the standard deviation of the averaged measurements.
Assays:
Assay in all cases: relative cell number vs DMSO control (72 h) (% of DMSO); higher = less growth inhibition (more cells)
Conditions in all cases: sgRNA knockout: sgNT
SKBR3 = system: SKBR3
Description: (§1)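 QMAP-Seq: a pool of 5 breast cancer cell lines (ZR-75-1, SKBR3, HCC-38, MDA-MB-231, BT-20), each carrying 12 doxycycline-inducible Cas9 sgRNA perturbations (11 knockouts plus non-targeting sgNT), was treated with compounds for 72 h at four 10-fold doses (10 nM-10 uM or 1 nM-1 uM range). Barcodes were amplified and sequenced, and cell number was interpolated from 293T spike-in standard curves. The result is expressed as % of the median of DMSO wells. Two biological replicates.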

ZR-75-1 = system: ZR-75-1
Description: as §1

HCC-38 = system: HCC-38
Description: as §1

BT-20 = system: BT-20
Description: as §1

MDA-MB-231 = system: MDA-MB-231
Description: as §1

| SMILES | relative cell number (SKBR3; 10 nM) | relative cell number (SKBR3; 100 nM) | relative cell number (SKBR3; 1000 nM) | relative cell number (SKBR3; 10000 nM) | relative cell number (ZR-75-1; 10 nM) | relative cell number (ZR-75-1; 100 nM) | relative cell number (ZR-75-1; 1000 nM) | relative cell number (ZR-75-1; 10000 nM) | relative cell number (HCC-38; 10 nM) | relative cell number (HCC-38; 100 nM) | relative cell number (HCC-38; 1000 nM) | relative cell number (HCC-38; 10000 nM) | relative cell number (BT-20; 10 nM) | relative cell number (BT-20; 100 nM) | relative cell number (BT-20; 1000 nM) | relative cell number (BT-20; 10000 nM) | relative cell number (MDA-MB-231; 10 nM) | relative cell number (MDA-MB-231; 100 nM) | relative cell number (MDA-MB-231; 1000 nM) | relative cell number (MDA-MB-231; 10000 nM) | relative cell number (SKBR3; 1 nM) | relative cell number (ZR-75-1; 1 nM) | relative cell number (HCC-38; 1 nM) | relative cell number (BT-20; 1 nM) | relative cell number (MDA-MB-231; 1 nM) |
| --- | --- | --- | --- | --- | --- | --- | --- | --- | --- | --- | --- | --- | --- | --- | --- | --- | --- | --- | --- | --- | --- | --- | --- | --- | --- |
| C=CC(=O)Nc1cc2c(Nc3ccc(F)c(Cl)c3)ncnc2cc1OCCCN1CCOCC1 [Canertinib] | 81.6 ± 12 | 56.6 ± 18 | 39.1 ± 14 | 16.3 ± 0.86 | 117 ± 23 | 113 ± 22 | 63.6 ± 13 | 41.2 ± 9.9 | 97 ± 19 | 110 ± 9.9 | 87 ± 12 | 9.97 ± 5 | 69.3 ± 4.2 | 59.3 ± 7.5 | 75.3 ± 11 | 41.5 ± 21 | 87.7 ± 26 | 60.8 ± 6.4 | 78.7 ± 21 | 9.74 ± 5.8 |  |  |  |  |  |
| CC(C)C[C@H](NC(=O)[C@H](CCc1ccccc1)NC(=O)CN1CCOCC1)C(=O)N[C@@H](Cc1ccccc1)C(=O)N[C@@H](CC(C)C)C(=O)[C@@]1(C)CO1 [Carfilzomib] | 33.5 ± 8.4 | 11.2 ± 8.9 | 7.64 ± 5.5 |  | 89.9 ± 9.1 | 22.8 ± 13 | 7.73 ± 3.8 |  | 31.4 ± 4.7 | 8.48 ± 4 | 4.65 ± 0.23 |  | 80.32 ± 0.3 | 21.4 ± 4.5 | 14.6 ± 1.8 |  | 91 ± 32 | 37.8 ± 22 | 18.7 ± 5.8 |  | 58.5 ± 9.1 | 73.3 ± 12 | 76.3 ± 6.3 | 80.9 ± 18 | 83.2 ± 3.2 |
| COc1cc2c(Oc3ccc4[nH]c(C)cc4c3F)ncnc2cc1OCCCN1CCCC1 [Cediranib] | 103 ± 25 | 85.8 ± 14 | 113 ± 29 | 11.1 ± 1.2 | 113 ± 5.5 | 87.5 ± 7.5 | 86.3 ± 5.5 | 10.9 ± 2.5 | 108 ± 8.3 | 100 ± 1.8 | 59.3 ± 0.64 | 9.73 ± 0.54 | 104 ± 8.7 | 100 ± 29 | 104 ± 9 | 27.9 ± 8.5 | 91.3 ± 3.8 | 114 ± 20 | 104 ± 33 | 15.9 ± 2.8 |  |  |  |  |  |
| O=C(O)CCCc1ccc(N(CCCl)CCCl)cc1 [Chlorambucil] | 107 ± 1.5 | 74.5 ± 4.3 | 82.17 ± 0.55 | 64.2 ± 2.1 | 81.3 ± 21 | 83.3 ± 26 | 78 ± 34 | 86.17 ± 0.75 | 90.4 ± 5.5 | 98.6 ± 12 | 96 ± 3.8 | 67.5 ± 2.6 | 100 ± 3 | 72.6 ± 16 | 93.2 ± 18 | 81.2 ± 22 | 99.2 ± 7.3 | 94.9 ± 9.4 | 91 ± 18 | 63.5 ± 24 |  |  |  |  |  |
| Cc1cc(C2CCCCC2)n(O)c(=O)c1 [Ciclopirox] | 105 ± 24 | 83.3 ± 22 | 86.9 ± 17 | 17.3 ± 9.5 | 112 ± 34 | 93.9 ± 19 | 41.4 ± 1.6 | 18.3 ± 1.6 | 88.3 ± 8.2 | 93.6 ± 11 | 77.4 ± 3.9 | 13.6 ± 2.9 | 96.4 ± 11 | 95.2 ± 19 | 65.7 ± 2.8 | 25.2 ± 7.7 | 112 ± 16 | 125 ± 41 | 49.1 ± 5.4 | 20.4 ± 5.6 |  |  |  |  |  |
| CN/C(=N\CCSCc1nc[nH]c1C)NC#N [Cimetidine] | 78.8 ± 35 | 141 ± 62 | 107.1 ± 0.53 | 110 ± 13 | 103 ± 4.7 | 121 ± 47 | 101 ± 17 | 133 ± 39 | 101 ± 16 | 97.2 ± 9.8 | 88.8 ± 11 | 101 ± 7.5 | 111 ± 2.3 | 108 ± 20 | 100 ± 8.2 | 106 ± 15 | 103 ± 22 | 106 ± 46 | 95.5 ± 9.1 | 92.2 ± 9.2 |  |  |  |  |  |
| N.N.[Cl][Pt][Cl] [Cisplatin] | 97.5 ± 2.7 | 84.6 ± 5.9 | 81.5 ± 8.8 | 110 ± 3.5 | 89.8 ± 18 | 88.2 ± 45 | 89.7 ± 35 | 74.5 ± 27 | 114 ± 20 | 79.6 ± 12 | 115 ± 13 | 93.4 ± 8.6 | 100 ± 7.4 | 80.4 ± 4.7 | 111 ± 5.1 | 89 ± 2.7 | 95 ± 3.3 | 87.8 ± 8.9 | 99.8 ± 51 | 116 ± 20 |  |  |  |  |  |
| Nc1nc(Cl)nc2c1ncn2[C@@H]1O[C@H](CO)[C@@H](O)[C@@H]1F [Clofarabine] | 65.5 ± 37 | 45.5 ± 1.9 | 10.2 ± 1.7 | 8.24 ± 1.4 | 72.7 ± 31 | 63.6 ± 9.1 | 22.1 ± 3.6 | 25.4 ± 15 | 98.6 ± 18 | 25.9 ± 0.79 | 12.6 ± 1.4 | 12.4 ± 6.4 | 103 ± 44 | 73.9 ± 4.4 | 27 ± 2.8 | 26.5 ± 1.5 | 82.8 ± 26 | 30 ± 7.7 | 12 ± 1.1 | 22.7 ± 0.75 |  |  |  |  |  |
| C[C@@H](Oc1cc(-c2cnn(C3CCNCC3)c2)cnc1N)c1c(Cl)ccc(F)c1Cl [Crizotinib] | 92.7 ± 20 | 98.4 ± 12 | 88.6 ± 8.4 | 37.4 ± 27 | 75.6 ± 19 | 116 ± 13 | 34.1 ± 13 | 14.6 ± 0.35 | 91.2 ± 15 | 85.708 ± 0.047 | 86.8 ± 2.8 | 25.9 ± 4.9 | 83.9 ± 22 | 100.3 ± 0.25 | 75.5 ± 12 | 44.2 ± 4.7 | 89.5 ± 29 | 88.8 ± 15 | 54 ± 14 | 8.63 ± 0.23 |  |  |  |  |  |
| COc1cc(/C=C/C(=O)CC(=O)/C=C/c2ccc(O)c(OC)c2)ccc1O [Curcumin] | 106 ± 29 | 82.86 ± 0.028 | 111 ± 7.2 | 66.7 ± 0.98 | 73.8 ± 1.7 | 84.5 ± 52 | 112 ± 46 | 72.5 ± 0.98 | 100 ± 14 | 97.5 ± 7 | 95.5 ± 7.2 | 85.5 ± 21 | 116 ± 7.8 | 107 ± 32 | 95.9 ± 6.5 | 95.3 ± 16 | 91.8 ± 29 | 136 ± 59 | 88.6 ± 8.1 | 61.55 ± 0.48 |  |  |  |  |  |

From the supplement of paper PMC7661543
